Assay results reported in patent US20060014723A1, “Anti-parasitic uses of borinic acid complexes” (priority 2004, published 2006).
Converted amounts (≈) assume the structure as drawn.

How the values were obtained:
[1] = system: P. falciparum K1; experiment: Malaria in vitro screening model (3H-hypoxanthine incorporation); type: cell-based, Plasmodium falciparum
In short: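 Chloroquine/pyrimethamine-resistant P. falciparum K1 in human A+ erythrocytes (0.15% parasitemia, 2.5% hematocrit) was exposed to seven 2-fold compound dilutions in hypoxanthine-free medium at 37 °C, low O2. After 48 h, 0.5 μCi ³H-hypoxanthine was added for 24 h more. IC50 was taken from sigmoidal curves as % of untreated control.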

[2] = system: Trypanosoma cruzi Tulahuen C2C4 strain; experiment: Chagas disease in vitro screening model (beta-galactosidase strain in L-6 cells); type: cell-based
In short: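 L-6 rat myoblasts in RPMI 1640/10% FBS at 37 °C were infected with 5×10^3 lacZ-expressing T. cruzi Tulahuen C2C4 trypomastigotes. CPRG/Nonidet substrate was read at 540 nm, and IC50 came from sigmoidal curves.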

Structure (SMILES) | P. falciparum IC50 [1] | T. cruzi IC50 [2] | IC50 ([1]; Plasmodium falciparum, K1) | IC50 ([2]; Trypanosoma cruzi, TULAHUEN, L6, read-out: T. cruzi IC50)
CC1(C)COC(c2cccc(B(Oc3cccc4cccnc34)c3cccc(C4=NC(C)(C)CO4)c3)c2)=N1 [Compound 13, Bis[3-(4,5-dihydro-4,4-dimethyloxazol-2-yl)phenyl]borinic acid 8-hydroxyquinoline ester] | 2 µg/mL | 8.7 µg/mL | – | –
COc1ccc(B(Oc2cccc3cccnc23)c2cccc(Cl)c2)cc1OC [Compound 27, (3-Chlorophenyl)(3,4-dimethoxyphenyl)borinic acid quinolin-8-yl ester] | – | – | 1.7 µg/mL (≈ 4.21 µM) | 3.2 µg/mL (≈ 7.93 µM)
